“Also recorded” adds a separate entry of the source.
Assays:
PPAR-δ target genes = assay: PPAR-δ target gene and protein expression in flow sorted ISCs and progenitors (qRT-PCR, immunoblot, RNA-seq); format: in vivo, mouse; conditions: GW501516 for 4 weeks, protein level
Source text: Antibodies: rabbit polyclonal anti-PPAR-δ (1:100, Thermo PA1-823A), rabbit polyclonal anti-Cpt1a (1:250, ProteinTech 15184-1-AP), rabbit polyclonal anti-HMGCS2 (1:500, Sigma AV41562), rabbit monoclonal anti-FABP1 (1:1000, Abcam ab129203), rabbit polyclonal anti-γ-tubulin (1:1000, Sigma T5192). Lgr5-GFP^hi ISCs or GFP^low progenitors were sorted directly into sample buffer and boiled for five minutes. Samples were resolved by SDS-PAGE and analyzed by immunoblotting with goat anti-rabbit IgG-HRP secondary antibodies (1:10,000, Santa Cruz Biotechnology sc-2054) and Western Lightning Plus-ECL detection kit (Perkin Elmer, NEL 104001EA).
Cells were sorted into Tri Reagent (Life Technologies) and total RNA was isolated according to the manufacturer's instructions with following modification: the aqueous phase containing total RNA was purified using RNeasy plus kit (Qiagen). RNA was converted to eDNA with cDNA synthesis kit (Bio-Rad). qRT-PCR was performed with SYBR green master mix (Bio-Rad) on Bio-Rad iCycler RT-PCR detection system. Primers used are listed on Table 4 below.
RNA Isolation. […] From the total RNA, poly(A)^+ RNA was selected using Oligo(dT)25-Dynabeads (Life technologies) according to the manufacturer's protocol.

Lgr5-GFP^hi ISCs = assay: Organoid formation by sorted Lgr5-GFP^hi ISCs with or without Paneth cells; format: cell-based, mouse; conditions: ISCs from GW501516-treated mice, no Paneth cells, vs vehicle; listed as GW501515
Description: (§1) Isolated ISCs or progenitor cells were centrifuged for 5 minutes at 250 g, re-suspended in the appropriate volume of crypt culture medium (500-1,000 cells μl^−1), then seeded onto 25-30 μl Matrigel™ (Corning 356231 growth factor reduced) containing 1 μM jagged (Ana-Spec) in a flat bottom 48-well plate (Corning 3548). Alternatively, ISCs and Paneth cells were mixed after sorting in a 1:1 ratio, centrifuged, and then seeded onto Matrigel™. The Matrigel™ and cells were allowed to solidify before adding 300 μl of crypt culture medium. The crypt media was changed every second or third day. Organoid bodies were quantified on days 3, 7 and 10 of culture, unless otherwise specified. With respect to the study results presented in FIGS. 14-16, organoid bodies were quantified on day 3-4. In secondary experiments, individual primary organoids were mechanically dissociated and re-plated, or organoids were dissociated for 10 minutes in TrypLE Express at 32° C., re-suspended with SMEM (Life Technologies), centrifuged and re-suspended in cold SMEM with viability dye 7-AAD. Live cells were sorted and seeded onto Matrigel™ as previously described.

Lgr5-GFP^low progenitors = assay: Organoid formation by sorted Lgr5-GFP^low progenitors; format: cell-based, mouse; conditions: progenitors from GW501516-treated mice, vs vehicle
Description: as §1

β-catenin = β-catenin nuclear localization by immunostaining; format: in vivo, mouse; conditions: GW501516-treated mice vs vehicle
[1] = tested on: Olfm4+ ISCs and Cryptdin 4+ Paneth cells; assay: In situ hybridization for Olfm4 and Cryptdin 4, proximal jejunum; format: in vivo, mouse; conditions: GW501516-treated mice vs vehicle
Source text: The in situ hybridization probes used in this study correspond to expressed sequence tags or fully sequenced cDNAs obtained from Open Biosystems. The accession numbers (IMAGE mouse cDNA clone in parenthesis) for these probes are as follows: mouse Olfm4 BC141127 (9055739), mouse Cryptdin 4 BC134360 (40134597). Both sense and antisense probes were generated to ensure specificity by in vitro transcription using DIG RNA labelling mix (Roche) according to the manufacturer's instructions and to previously published detailed methods.^24,44

[2] = tested on: Apc-null Lgr5-GFP^hi ISCs and Lgr5-GFP^low progenitors; assay: Orthotopic transplantation of Apc-null cells into recipient colons; format: in vivo, mouse; conditions: 10,000 cells from GW501516-treated mice; for adenoma initiation by transplanted Apc-null Lgr5-GFP^low progenitors: vehicle 0±0
Source text: (§2) To test this possibility, the present inventors generated Apc^loxp/loxp; Lgr5-EGFP-IRES-CreERT2 mice to assess whether pharmacological PPAR-δ activation modifies the tumorigenic capacity of the Lgr5-GFP^low progenitors. Injection with tamoxifen leads to Apc-loss in the Lgr5-GFP^hi ISCs, which in turn generate Apc-null Lgr5-GFP^low progenitors. Four days after tamoxifen administration, we flow sorted Apc-null Lgr5-GFP^hi ISCs and Lgr5-GFP^low progenitors from vehicle and PPAR-δ agonist treated mice to assess the tumor-forming potential of these populations using separate assays (FIG. 7B): first, we examined their ability to give rise to adenomatous organoids in culture; and second, we interrogated the ability of 10,000 freshly sorted stem and progenitor cells to initiate adenomatous lesions in syngeneic recipient colons.
Apc^loxp/loxp; Lgr5-EGFP-IRES-CreERT2 mice were treated with vehicle or GW501516 for one month, and then injected with two doses of tamoxifen I.P. Four days later, Apc-null Lgr5-GFP^hi ISCs and Lgr5-GFP^low progenitors were sorted by flow cytometry, as described above. For primary cell transplantations, 10,000 Apc-null Lgr5-GFP^hi ISCs and Lgr5-GFP^low progenitors were resuspended into 90% crypt culture media (as described) and 10% Matrigel™, then transplanted into the colonic lamina propria of C57BL/6 recipient mice by optical colonoscopy using an injection needle (Hamilton Inc., part number 7750-21, 30 gauge, Kel-F Hub NDL, 14 inches length, 45 degree bevel) and specialized syringe (Hamilton Inc, part number 81242, 500 μL, Model 1750 LT Threaded Plunger). Optical colonoscopy was performed using a Karl Storz Image 1 HD Camera System, Image 1 HUB CCU, 175 Watt Xenon Light Source, and Richard Wolf 1.9 mm/9.5 Fr Integrated Telescope (part number 8626.431). Four injections were performed per mouse. Mice then underwent colonoscopy four weeks later to assess tumor formation. Colonoscopy videos and images were saved for offline analysis. […]

[3] = tested on: Apc-null Lgr5-GFP^hi ISCs and Lgr5-GFP^low progenitors; assay: In vitro adenomatous organoid formation by Apc-null ISCs and progenitors; format: cell-based, mouse
Source text: as §2, §1

Cc1cc(SCc2sc(-c3ccc(C(F)(F)F)cc3)nc2C)ccc1OCC(=O)O [GW501516, 2-[2-methyl-4-[[4-methyl-2-[4-(trifluoromethyl)phenyl]-1,3-thiazol-5-yl]methylsulfanyl]phenoxy]acetic acid]
PPAR-δ target proteins in ISCs and progenitors (PPAR-δ target genes): strong induction; also recorded: upregulated
Paneth cell-independent organoid-initiating capacity of Lgr5-GFP^hi ISCs (Lgr5-GFP^hi ISCs): sufficient to enhance
organoid-initiating capacity of Lgr5-GFP^low progenitors (Lgr5-GFP^low progenitors): possess the potential to autonomously form organoid bodies; also recorded: conferred organoid-initiating capacity
organoid-initiating capacity of Lgr5-GFP^low progenitors (Lgr5-GFP^low progenitors; listed as GW501515): sufficient to enhance
organoid-initiating capacity of Lgr5-GFP^low progenitors (Lgr5-GFP^low progenitors; listed as PPAR-δ agonist): capable of forming organoids
nuclear β-catenin in stem and progenitor cells of crypts (intestinal sections) (β-catenin): increased nuclear β-catenin localization
nuclear β-catenin localization in flow sorted ISCs and progenitors (β-catenin): increased nuclear β-catenin localization
nuclear β-catenin in stem and progenitor cells of crypts (intestinal sections) (β-catenin; listed as PPAR-δ agonist): greater percentage
nuclear β-catenin localization in flow sorted ISCs and progenitors (β-catenin; listed as PPAR-δ agonist): more nuclear β-catenin accumulation
Cryptdin 4+ Paneth cell numbers [1]: no impact; also recorded: remained unchanged
Olfm4+ ISC numbers per jejunal crypt [1]: augmented; also recorded: increased
adenoma initiation by transplanted Apc-null Lgr5-GFP^low progenitors [2]: initiated tumors
adenoma initiation by transplanted Apc-null Lgr5-GFP^low progenitors ([2]; listed as PPAR-δ agonist): 0.58±0.16
intestinal adenoma formation by transplanted Apc-null Lgr5-GFP^hi ISCs ([2]; vehicle 0.67±0.13, listed as PPAR-δ agonist): 0.61±0.19
in vitro adenoma-initiating potential of Apc-null Lgr5-GFP^low progenitors ([3]; GW501516-treated mice, EN media, vehicle 0.04±0.05): 0.18±0.07
in vitro adenomatous organoid-forming potential of Apc-null Lgr5-GFP^hi ISCs ([3]; GW501516-treated vs vehicle): not altered
increase of in vitro adenomatous organoid forming potential of Apc-null Lgr5-GFP^low progenitors ([3]; GW501516-treated vs vehicle, EN media): four-fold
in vitro adenomatous organoid-forming potential of Apc-null Lgr5-GFP^hi ISCs ([3]; GW501516-treated vs vehicle, listed as PPAR-δ agonist): as clonogenic as those from vehicle controls

Reference: patent US10426757B2, “Compositions and methods for promoting intestinal stem cell and/or non-stem progenitor cell function” (Whitehead Institute for Biomedical Research, priority 2014, dated 2019)
